Measurements as given in patent publication US20230346827A1 (priority 2020, published 2023).

Legend:
[1] = test system: plasma hepatocyte growth factor (HGF); assay: Plasma HGF (ELISA) in ALS patients after s.c. LMW-DS 1 mg/kg weekly (Example 2); type: in vivo, human; settings: 1 mg/kg s.c.
Experimental: This was a single-center, open single-arm study where the safety, tolerability and efficacy of subcutaneous (s.c.) administered LMW-DS was evaluated in patients with ALS. There were 10 planned visits to the clinic: 1 screening visit divided in 2 parts (Visit 1a and Visit 1b), 5 investigational medicinal product (IMP) administration visits (Visit 2 to Visit 6) and 3 follow-up visits (Visit 7 to Visit 9). Each individual patient’s study participation was planned to be approximately 4 months, including the screening and follow-up visits.
The active pharmaceutical ingredient of the IMP was a low molecular weight dextran sulfate (LMW-DS), (ILB®, Tikomed AB, Viken, Sweden, WO 2016/076780). The drug was used as a solution for s.c. injection and consisted of 20 mg/mL LMW-DS and 9 mg/mL NaCl. Each glass vial contained 10 mL. The dose administered depended on the patient’s body weight at Visit 2, prior to the first LMW-DS administration. LMW-DS was injected s.c. on alternating sides of the abdomen, thigh or the buttock (in that order of priority). Five injections of 1 mg/kg, with 1 week dosing interval, were administered. Changes in immunoreactive HGF were measured by commercial ELISA (R&D HGF ELISA) from blood samples taken at each visit.

[2] = test system: Mouse motor neurons; assay: Gene expression array and pathway analysis, motor neurons, LMW-DS 0.01 mg/ml 48 h; type: cell-based; settings: for number of genes: abolished nutrient effect / number of genes: new effect induced by LMW-DS / number of genes: total / number of genes: enhanced response to nutrients / number of genes: not different from control / Activation z-score / Predicted activation state relative D2 control: motor neurons; for Activation z-score / Predicted activation state relative D2 control: D0 to LMW-DS treatment
Experimental: For each cell line, n=8 × 25 cm^2 culture flasks were set up. Two flasks were harvested for each cell type on the day of treatment (24 hours after seeding). This represents the Day0 time point. From the remaining flasks, three flasks were treated with Control Medium and three were treated with Culture Medium (CM) containing LMW-DS to give a final concentration of 0.01 mg/ml. Cells from the treated flasks were collected after 48 hours. Therefore the collected data represent (a) untreated cells (Day0 Controls and Day2 Controls) and (b) cells treated with LMW-DS (ILB®, Tikomed AB, Viken, Sweden, WO 2016/076780) for 48 hours (Day2 LMW-DS treated).
The culture medium was prepared according to Table 28.
Medium (see Table 28) was pre-warmed to 37° C. Cells were thawed in a 37° C. water bath for no longer than 2 min. 9 ml of media was gently added drop-wise. The cell suspension was mixed by inverting the tube carefully twice. The cells were counted with a Cellometer. The cells were centrifuged for 5 minutes at 200 x g. Supernatant was removed (to the last 0.5 ml) and cells were gently re-suspended by trituration. The cells from the 8 vials were mixed and distributed equally into the previously coated 25 cm^2 flasks (n=8). Cells were incubated at 37° C. with 5% CO2 for 24 hours before treatment.
LMW-DS was provided at a stock concentration of 20 mg/ml and was kept in a temperature monitored refrigerator at 4° C. A fresh 100x LMW-DS stock (1.0 mg/ml) was prepared in sterile DMEM-F12. The concentrated drug stock was sterile filtered and added to the respective culture media (19.6 ml CM and 0.4 ml LMW-DS stock solution). The Control was made using 19.6 ml CM and 0.4 ml of DMEM-F12. LMW-DS and CM were added to the respective flasks (5 ml each) to reach the 0.01 mg/ml concentration of LMW-DS in each dish with a total of 10 ml CM each.
CM was aspirated into a clean and labelled 15 ml Falcon tube. The flasks (without culture medium) were placed into the -80° C. freezer for 30 minutes. The CM in the Falcon tubes was spun at 3000 x g for 5 minutes. Supernatant was removed and the small pellet was re-suspended in 2.5 ml Trizol:Water (4:1) solution at room temperature (RT, ~22° C.).
Two aliquots of 1 ml lysate were removed from each sample and 200 µl of chloroform was added to each (0.2 ml of chloroform per 1 ml of TRIzol Reagent used during the cell lysis step) and the tube was shaken vigorously. Samples were stored at RT for 2-3 minutes and subsequently centrifuged at 12,000 x g for 15 minutes at 4° C.
The RNA was precipitated from the aqueous phase by adding an equal amount of 100% ethanol. The precipitated RNA was fixed onto a Spin Cartridge, washed twice and dried. The RNA was eluted in 50 µl warm RNase-Free Water. The amount and quality of the purified RNA was measured by Nanodrop. The RNA was stored at -80° C. before transfer to Source Bioscience for Array analysis.
The expression data were downloaded into separate files for each cell line. The ‘Background corrected’ expression is the data from the “gProcessedSignal” of the arrays that is the result of the background signal extracted from the actual signal of the relevant probe. This is the most often used variable in array analysis. The background corrected signal was log2 transformed for all samples for statistical analysis. To reduce the false discovery rate in the samples, the signals that were below ‘expression level’ were removed. The ‘below expression’ level was set at 5 for the log2 transformed expression values.
Based on the expression pattern of the Control probes on each array it was decided to carry out Median Centering for all arrays before analysis to reduce the variability of the results. […]

[3] = pathway analysis of gene expression

sodium salt of dextran sulfate [LMW-DS]
time of maximum peak of plasma HGF after LMW-DS administration [1]: about 2 hr
number of differentially expressed genes ([2]; D0 control to D2 LMW-DS treated): 315
number of differentially expressed genes ([2]; D0 control to D2 LMW-DS treated (second statement)): 425
number of genes: abolished nutrient effect ([2]; no effect): 177
number of genes: new effect induced by LMW-DS ([2]; no effect): 108
number of genes: total ([2]; no effect): 285
number of genes: abolished nutrient effect ([2]; significant downregulation): 47
number of genes: enhanced response to nutrients ([2]; significant downregulation): 36
number of genes: new effect induced by LMW-DS ([2]; significant downregulation): 375
number of genes: not different from control ([2]; significant downregulation): 104
number of genes: total ([2]; significant downregulation): 562
number of genes: abolished nutrient effect ([2]; significant upregulation): 40
number of genes: enhanced response to nutrients ([2]; significant upregulation): 103
number of genes: new effect induced by LMW-DS ([2]; significant upregulation): 71
number of genes: not different from control ([2]; significant upregulation): 75
number of genes: total ([2]; significant upregulation): 289
number of genes: abolished nutrient effect ([2]; total): 264
number of genes: enhanced response to nutrients ([2]; total): 139
number of genes: new effect induced by LMW-DS ([2]; total): 554
number of genes: not different from control ([2]; total): 179
number of genes: total ([2]; total): 1136
amyloid-β production [2, 3]: preventing
inhibition of glutamate production [2, 3]: not affected
level of H2O2 [2, 3]: reduced
Activation z-score ([2]; upstream regulator AGT): 2.631
Predicted activation state relative D2 control ([2]; upstream regulator AGT): Activated
Activation z-score ([2]; upstream regulator BMP4): 0.972
Predicted activation state relative D2 control ([2]; upstream regulator BMP4): More activated relative to control
Activation z-score ([2]; upstream regulator BMP6): 0.13
Predicted activation state relative D2 control ([2]; upstream regulator BMP6): More activated relative to control
Activation z-score ([2]; upstream regulator BMP7): 1.092
Predicted activation state relative D2 control ([2]; upstream regulator BMP7): More activated relative to control
Activation z-score ([2]; upstream regulator INHA): 0.588
Predicted activation state relative D2 control ([2]; upstream regulator INHA): More activated relative to control
